Measured values as given in patent US11725010B2, “Polyheterocyclic compounds as METTL3 inhibitors” (Storm Therapeutics Limited, priority 2019, dated 2023).

Tests used:
KASUMI-1 cells = experiment: Kasumi cell assay (CellTiter-Glo cell growth); format: cell-based; settings: Homo sapiens, Kasumi 1; treated for 120 hours, CellTiter-Glo luminescence; read-out: KASUMI1 cells IC50
Experimental: Upon treatment, Kasumil cells were incubated for 10 min at RT with the CellTiter-Glo reagent (G7571, Promega). Measurement of the luminescence signal was performed on a microplate reader (Ensight, PerkinElmer).

METTL3/14 = METTL3/14 (Homo sapiens (Human), UniProt Q86U44)
METTL3/14, sequence (Q86U44 whole entry): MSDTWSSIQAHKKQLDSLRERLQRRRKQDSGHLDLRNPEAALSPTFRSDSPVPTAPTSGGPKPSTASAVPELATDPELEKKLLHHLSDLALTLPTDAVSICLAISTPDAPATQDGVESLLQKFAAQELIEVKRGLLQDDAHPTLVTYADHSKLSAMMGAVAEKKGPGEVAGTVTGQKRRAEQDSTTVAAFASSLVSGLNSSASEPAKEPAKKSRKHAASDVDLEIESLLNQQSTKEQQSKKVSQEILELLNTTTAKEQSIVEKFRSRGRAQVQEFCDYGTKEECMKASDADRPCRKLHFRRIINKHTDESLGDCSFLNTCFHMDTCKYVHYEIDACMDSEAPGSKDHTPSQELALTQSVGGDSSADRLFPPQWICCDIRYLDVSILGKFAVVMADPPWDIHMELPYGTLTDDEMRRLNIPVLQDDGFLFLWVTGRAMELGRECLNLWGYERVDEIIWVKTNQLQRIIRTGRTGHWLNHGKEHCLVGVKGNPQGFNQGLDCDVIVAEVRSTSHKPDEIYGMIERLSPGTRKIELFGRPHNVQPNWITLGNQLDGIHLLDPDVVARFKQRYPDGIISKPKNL
METTL3/14, sequence (Q9HCE5 whole entry partner): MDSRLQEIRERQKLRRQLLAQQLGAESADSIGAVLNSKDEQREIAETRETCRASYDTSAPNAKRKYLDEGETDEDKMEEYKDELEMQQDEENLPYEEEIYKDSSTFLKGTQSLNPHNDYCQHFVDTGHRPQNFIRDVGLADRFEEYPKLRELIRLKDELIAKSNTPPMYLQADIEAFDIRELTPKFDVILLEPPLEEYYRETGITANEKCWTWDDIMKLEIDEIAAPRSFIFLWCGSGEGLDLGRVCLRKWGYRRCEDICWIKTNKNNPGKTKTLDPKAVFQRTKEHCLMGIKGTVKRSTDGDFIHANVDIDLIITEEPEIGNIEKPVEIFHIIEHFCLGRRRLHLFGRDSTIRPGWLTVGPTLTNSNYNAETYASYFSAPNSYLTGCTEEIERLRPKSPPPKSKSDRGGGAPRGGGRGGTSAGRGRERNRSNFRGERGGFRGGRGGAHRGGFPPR

Caov-3 cells = experiment: Caov3 CTG proliferation assay; format: cell-based; settings: Homo sapiens, Caov-3; treated for 120 hours, CellTiter-Glo luminescence; read-out: Caov3 cells IC50
Experimental: CTG Assay (Caov3 Cell Line)
Upon treatment, Coav-3 cells were incubated for 10 min at RT with the CellTiter-Glo reagent (G7571, Promega). Measurement of the luminescence signal was performed on a microplate reader (Ensight, PerkinElmer).
Caov3 CTG Assay—Proliferation Assay

Row | Structure (SMILES) | IC50 (KASUMI-1 cells) [nM] | IC50 (METTL3/14) [nM] | IC50 (Caov-3 cells) [nM]
1 | O=C(NCc1ccc2cc(CN3CC4(CCC4)C3)[nH]c2c1)c1cc(=O)n2ccccc2n1 [Compound 67, N-[[2-(2-azaspiro[3.3]heptanean-2-ylmethyl)-1H-indol-6-yl]methyl]-4-oxo-pyrido[1,2-a]pyrimidine-2-carboxamide] | 1720 | 6.1 | 482
2 | O=C(NCc1ccc2cc(CNC3CC34CCC4)[nH]c2c1)c1cc(=O)n2ccccc2n1 (centres unmarked) [Compound 110, 4-oxo-N-({2-[({spiro[2.3]hexan-1-yl}amino)methyl]-1H-indol-6-yl}methyl)-4H-pyrido[1,2-a]pyrimidine-2-carboxamide] | 1140 | 6.1 | 412
3 | c1cc(-c2cn(Cc3cc4[nH]c(CN5CCC6(CCC6)C5)cc4cn3)nn2)c2cncn2c1 [Example 155, 2-((6-azaspiro[3.4]octan-6-yl)methyl)-6-((4-(imidazo[1,5-a]pyridin-8-yl)-1H-1,2,3-triazol-1-yl)methyl)-1H-pyrrolo[3,2-c]pyridine] | 547 | < 6.1 | 473
4 | O=C(NCc1ccc2cc(CNCC34CC(F)(C3)C4)[nH]c2c1)c1cc(=O)n2ccccc2n1 [Compound 23, N-[(2-{[({3-fluorobicyclo[1.1.1]pentan-1-yl}methyl)amino]methyl}-1H-indol-6-yl)methyl]-4-oxo-4H-pyrido[1,2-a]pyrimidine-2-carboxamide] | 263 | 6.1 | 80.1
5 | N#Cc1ncc(F)cc1-c1cn(Cc2ccc3cc(CNCC4CCC4)[nH]c3c2)nn1 [Example 152, 3-(1-((2-(((cyclobutylmethyl)amino)methyl)-1H-indol-6-yl)methyl)-1H-1,2,3-triazol-4-yl)-5-fluoropicolinonitrile] | 9960 | – | 5430
6 | COc1cnc(C#N)c(-c2cn(Cc3ccc4cc(CNCC5CCC5)[nH]c4c3)nn2)c1 [Example 151, 3-{1-[(2-{[(Cyclobutylmethyl)amino]methyl}-1H-indol-6-yl)methyl]-1H-1,2,3-triazol-4-yl}-5-methoxy-2-pyridinecarbonitrile] | 7220 | – | 9060
7 | CC(C)(C)C(C)(C)NCc1cc2ccc(CNC(=O)c3cc(=O)n4ccccc4n3)cc2[nH]1 [Compound 100, 4-oxo-N-[(2-{[(2,3,3-trimethylbutan-2-yl)amino]methyl}-1H-indol-6-yl)methyl]-4H-pyrido[1,2-a]pyrimidine-2-carboxamide] | 2540 | – | 685
8 | CC(C)(C)C1CN(Cc2cc3ccc(CNC(=O)c4cc(=O)n5ccccc5n4)cc3[nH]2)C1 [Compound 97, N-({2-[(3-tert-butylazetidin-1-yl)methyl]-1H-indol-6-yl}methyl)-4-oxo-4H-pyrido[1,2-a]pyrimidine-2-carboxamide] | 3090 | – | 1020
9 | CC1CC(CNCc2cc3ccc(CNC(=O)c4cc(=O)n5ccccc5n4)cc3[nH]2)C1 (centres unmarked) [Compound 99, N-{[2-({[(3-methylcyclobutyl)methyl]amino}methyl)-1H-indol-6-yl]methyl}-4-oxo-4H-pyrido[1,2-a]pyrimidine-2-carboxamide] | 3260 | – | 1090
10 | O=C(NCc1ccc2cc(CNC3(C4CCC4)CC3)[nH]c2c1)c1cc(=O)n2ccccc2n1 [Compound 116, N-[(2-{[(1-cyclobutylcyclopropyl)amino]methyl}-1H-indol-6-yl)methyl]-4-oxo-4H-pyrido[1,2-a]pyrimidine-2-carboxamide] | 5070 | 6.1 | –
11 | COc1cc(-c2cn(Cc3ccc4cc(CNCC5CCC5)[nH]c4c3)nn2)c2cncn2c1 [Example 63, N-(cyclobutylmethyl)-1-[6-[[4-(6-methoxyimidazo[1,5-a]pyridin-8-yl)triazol-1-yl]methyl]-1H-indol-2-yl]methanamine] | 869 | – | 257
